The test system of one series is Aspergillus flavus. Kind of series: Antifungal activity against Aspergillus flavus at 200 ug/ml after 7 days. The conditions noted are these: 168 h. Format: functional.
Series [1] is described as follows: Cytotoxicity against Artemia salina leach eggs. Particulars: Egg, read-out: LD50 (the source's name).
The next series relates to Salmonella enterica. Briefly: Antibacterial activity against Salmonella typhi at 50 ug/ml after 24 hrs by agar-well diffusion assay. The series is classed as functional, Salmonella enterica subsp. enterica serovar Typhi. The conditions noted are these: read-out: IZ.
The subject of another series is Fusarium solani. Briefly: Antifungal activity against Fusarium solani at 200 ug/ml after 7 days. Particulars: 168 h. Format: functional.
The subject of the next series is Trichophyton longifusum. Kind of series: Antifungal activity against Trichophyton longifusum at 200 ug/ml after 7 days. The series is classed as functional. Particulars: 168 h.
For the next series, the system named is Pseudomonas aeruginosa. Briefly: Antibacterial activity against Pseudomonas aeruginosa at 50 ug/ml after 24 hrs by agar-well diffusion assay. Format: functional. Particulars: read-out: IZ. (In agar diffusion tests the substance spreads into inoculated agar from a disc or well.)
A further series concerns Bacillus subtilis. Briefly: Antibacterial activity against Bacillus subtilis at 50 ug/ml after 24 hrs by agar-well diffusion assay. The series is classed as functional. The conditions noted are these: read-out: IZ.
A further series relates to Escherichia coli. Kind of series: Antibacterial activity against Escherichia coli at 50 ug/ml after 24 hrs by agar-well diffusion assay. Particulars: read-out: IZ. The series is classed as functional.
For the next series, the system named is Microsporum canis. Briefly: Antifungal activity against Microsporum canis at 200 ug/ml after 7 days. Format: functional. Particulars: 168 h.
For the next series, the system named is Staphylococcus aureus. Briefly: Antibacterial activity against Staphylococcus aureus at 50 ug/ml after 24 hrs by agar-well diffusion assay. The conditions noted are these: read-out: IZ. The series is classed as functional.
The next series relates to Candida albicans. Kind of series: Antifungal activity against Candida albicans at 200 ug/ml after 7 days. The series is classed as functional. The conditions noted are these: 168 h.
The test system of another series is Shigella flexneri. Kind of series: Antibacterial activity against Shigella flexneri at 50 ug/ml after 24 hrs by agar-well diffusion assay. The series is classed as functional. Particulars: read-out: IZ.
For the next series, the system named is Nakaseomyces glabratus. Kind of series: Antifungal activity against Candida glabrata at 200 ug/ml after 7 days. The conditions noted are these: 168 h. Format: functional.

≈ marks a conversion by molar mass, not a printed value.

As for `O=S(=O)(Nc1ncccn1)c1ccc(/N=C/c2cc(Br)ccc2O)cc1`, the inhibition (commonly how much of the control response was suppressed) at 200 µg/mL in the series with Aspergillus flavus was found to be 78%; with Fusarium solani it was 48%; in the series on Trichophyton longifusum it was 81%; in the series with Microsporum canis, 0%; in the series with Candida albicans, 34%; in the series with Nakaseomyces glabratus, 80%. For the same molecule, the LC50 in series [1] is greater than 3.16 mM. In addition, the zone of inhibition at 50 µg/mL came out at 13 mm in the series on Salmonella enterica; 12 mm in the series on Pseudomonas aeruginosa; 15 mm in the series with Bacillus subtilis; 17 mm with Escherichia coli; 16 mm in the series on Staphylococcus aureus; 8 mm in the series on Shigella flexneri.
On to `Clc1ccc(COC(Cn2ccnc2)c2ccc(Cl)cc2Cl)c(Cl)c1` (stereo not drawn) [MICONAZOLE], for which the minimum inhibitory concentration (MIC) (as a rule, the least concentration at which growth counts as inhibited) amounted to 111 µg/mL (≈ 266 µM) against Fusarium solani; 70 µg/mL (≈ 168 µM) in the series on Trichophyton longifusum; 98.4 µg/mL (≈ 236 µM) with Microsporum canis; 111 µg/mL (≈ 266 µM) against Candida albicans; 73.2 µg/mL (≈ 176 µM) in the series with Nakaseomyces glabratus.
Consider `C[C@@H](O)[C@H]1C(=O)N2C(C(=O)O)=C(SCCNC=N)C[C@H]12` [IMIPENEM ANHYDROUS], for which the zone of inhibition at 50 µg/mL was found to be 25 mm in the series with Salmonella enterica; 24 mm in the series with Pseudomonas aeruginosa; 26 mm in the series on Bacillus subtilis; 24 mm with Escherichia coli; 26 mm in the series on Staphylococcus aureus; 20 mm with Shigella flexneri.
`Cc1cc(C)nc(NS(=O)(=O)c2ccc(/N=C/c3cc(Br)ccc3O)cc2)n1`: the inhibition at 200 µg/mL with Aspergillus flavus came out at 38%; in the series on Fusarium solani, 20%; in the series on Trichophyton longifusum, 80%; in the series with Microsporum canis it was 73%; in the series with Candida albicans, 0%; with Nakaseomyces glabratus it was 0%. Moreover, the LC50 in [1] is greater than 3.16 mM. In addition, the zone of inhibition at 50 µg/mL in the series with Salmonella enterica was 11 mm; in the series with Pseudomonas aeruginosa, 13 mm; in the series with Bacillus subtilis it was 15 mm; with Escherichia coli, 18 mm; with Staphylococcus aureus it was 17 mm; with Shigella flexneri, 6 mm.
`C[C@@H]1[C@H](O)[C@@H](C)/C=C/C=C/C=C/C=C/C=C/C=C/C=C/[C@H](O[C@@H]2O[C@H](C)[C@@H](O)[C@H](N)[C@@H]2O)C[C@@H]2O[C@](O)(C[C@@H](O)C[C@@H](O)[C@H](O)CC[C@@H](O)C[C@@H](O)CC(=O)O[C@H]1C)C[C@H](O)[C@H]2C(=O)O` [AMPHOTERICIN B]: the lowest concentration to inhibit growth in the series on Aspergillus flavus (MIC) was 20 µg/mL (≈ 21.6 µM).

The values above are taken from ChEMBL document CHEMBL1177851, “Some new biologically active metal-based sulfonamide” (Eur J Med Chem, 2010).
